Results: publication PMC12210912, “Pharmacologic properties and inhibitory activity of 6-azasteroids against Mycobacterium leprae in vivo and in vitro” (Microbiology Spectrum, 2025)

Target: T1, CYP3A4 (Homo sapiens, UniProt P08684)
T1 construct: Human liver microsomes (150 donors pooled, male & female, Corning, Cat# 452117) were used as a source of CYP3A4; tissue Corning 452117; host or cells: pooled human liver microsomes (150 donors)
Assay: inhibition of CYP3A4 enzymatic activity in human liver microsomes
Assay type: in vitro ADME
Experimental: Inhibition of CYP3A4 enzymatic activity was carried out following a standard protocol by Pharmaron, Inc. Human liver microsomes (150 donors pooled, male & female, Corning, Cat# 452117) were used as a source of CYP3A4. The final concentration of human liver microsomes was 0.2 mg/mL. CYP3A4 was tested with testosterone (stock: 10 mM, final: 50 µM) or midazolam (stock: 1 mM, final: 5 µM) as substrate. Aliquots (1 µL) of test compounds (20 µM final concentration), positive control compound ketoconazole (20 µM final concentration), or buffer blank were transferred to a multi-well plate. The reaction was initiated with the addition of 20 µL of 10 mM NADPH solution to provide a final concentration of 1 mM in a 200 µL total volume and carried out at 37°C. The reaction was stopped by the addition of 1.5 volumes of methanol with incubation solution (100 nM alprazolam, 200 nM imipramine, 200 nM labetalol, and 2 µM ketoprofen) at designated time points (5 min midazolam-mediated CYP3A4; 10 min testosterone-mediated CYP3A4). The plate was centrifuged at 3,220 × g for 40 min to precipitate protein. Aliquots of 100 µL of the supernatant were diluted with 100 µL ultra-pure H2O, and the mixture was used for LC-MS/MS analysis to determine concentration of product (hydroxymidazolam or hydroxytestosterone) formed. The % inhibition was calculated by comparison with no inhibitor control. All experiments were performed in duplicate.

T1 sequence (P08684 whole entry): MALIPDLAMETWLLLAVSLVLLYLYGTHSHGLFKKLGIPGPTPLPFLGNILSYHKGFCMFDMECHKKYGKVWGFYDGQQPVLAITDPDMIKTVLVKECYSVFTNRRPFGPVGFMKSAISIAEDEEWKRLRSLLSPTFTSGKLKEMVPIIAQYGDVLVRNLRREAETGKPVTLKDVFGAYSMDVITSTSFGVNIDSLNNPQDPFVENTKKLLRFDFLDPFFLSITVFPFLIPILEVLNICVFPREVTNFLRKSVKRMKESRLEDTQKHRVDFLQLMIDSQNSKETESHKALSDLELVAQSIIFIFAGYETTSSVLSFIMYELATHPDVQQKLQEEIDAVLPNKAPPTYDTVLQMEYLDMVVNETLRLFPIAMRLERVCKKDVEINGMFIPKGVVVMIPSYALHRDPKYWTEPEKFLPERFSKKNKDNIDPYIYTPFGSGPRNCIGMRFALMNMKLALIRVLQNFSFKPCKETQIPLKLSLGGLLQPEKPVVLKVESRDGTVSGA

With `C[C@]12CCC3C(CNC4=CC(=O)CC[C@@]43C)C1CCC2C(=O)NC(c1ccc(F)cc1)c1ccc(F)cc1` (stereo partly shown) [Compound 5] as the molecule, how does the “% inhibition observed, Cyp3A4 Midazolam Isoform” value (20 µM, midazolam substrate) read?
The value was “strongly inhibits”.

And the “% inhibition observed, Cyp3A4 Testosterone Isoform” value (20 µM, testosterone substrate)?
The value was “strongly inhibits”.

And the inhibition at 5 min, 20 µM (both sexes, probe midazolam (5 µM), midazolam substrate, read-out: % inhibition observed, Cyp3A4 Midazolam Isoform)?
Its inhibition at 5 min, 20 µM is 79%.

And the inhibition at 10 min, 20 µM (both sexes, probe testosterone (50 µM), testosterone substrate, read-out: % inhibition observed, Cyp3A4 Testosterone Isoform)?
Its inhibition at 10 min, 20 µM is 68%.
